{"source": "ChEMBL document CHEMBL4665834", "about": "(J Med Chem, 2020)", "key": {"[1]": {"assay": "Solubility of compound in water using crystalline form of sample", "format": "physicochemical"}, "[2]": {"assay": "Relative oral bioavailability in Wistar rat at 1 to 3 mg/kg administered via gavage in 99.5% water, 0.5% Tylose and TRIS salt formulation by LC-MS/MS analysis", "format": "ADME, organism-based", "settings": "in vivo, dose 1-3 mg/kg"}, "[3]": {"assay": "Maximum oral bioavailability in rat hepatocytes based well stirred liver model at 1 uM measured after 2 to 90 mins by LC-MS/MS analysis", "format": "ADME, Hepatocyte", "settings": "time 2-90 min, read-out: Fmax"}, "[4]": {"assay": "Lipophilicity, log D of compound at pH 7.5 by HPLC analysis", "settings": "buffer"}, "Homo sapiens [5]": {"organism": "Homo sapiens", "assay": "Selectivity ratio of IC50 for displacement of [3H]prostaglandin E2 from full-length recombinant human EP4 receptor expressed in Chem-1 cell membranes to IC50 for displacement of [3H]PGF2alpha from full-length recombinant human FP receptor expressed in HEK293 cell membranes"}, "[6]": {"target": "Prostaglandin F2-alpha receptor (Homo sapiens, UniProt P43088)", "sequence (P43088 whole entry)": "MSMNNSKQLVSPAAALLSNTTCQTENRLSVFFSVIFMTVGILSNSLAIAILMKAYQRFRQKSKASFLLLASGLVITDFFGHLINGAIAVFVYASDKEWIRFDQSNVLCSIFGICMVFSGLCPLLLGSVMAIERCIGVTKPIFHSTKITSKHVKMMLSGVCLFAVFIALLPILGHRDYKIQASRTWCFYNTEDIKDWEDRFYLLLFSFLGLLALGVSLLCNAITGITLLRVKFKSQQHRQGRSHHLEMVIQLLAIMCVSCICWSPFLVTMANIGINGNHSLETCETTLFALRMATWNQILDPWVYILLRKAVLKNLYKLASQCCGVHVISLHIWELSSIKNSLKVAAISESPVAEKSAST", "assay": "Antagonist activity at human FPR expressed in human Chem-1 cells assessed as inhibition of PGF2alpha-induced calcium flux preincubated for 10 mins followed by PGF2alpha stimulation and measured for 120 secs by fluo-8 AM dye based fluorescence assay", "format": "functional, cell-based"}, "[7]": {"assay": "Clearance in Wistar rat at 0.3 to 1 mg/kg, iv administered as bolus dose by LC-MS/MS analysis", "format": "ADME, organism-based", "settings": "in vivo, dose 0.3-1 mg/kg"}, "[8]": {"assay": "Efflux ratio of apparent permeability across basolateral to apical side over apical to basolateral side in human Caco-2 cells measured after 2 hrs by HPLC analysis", "format": "ADME, cell-based"}, "[9]": {"assay": "Solubility of compound at pH 1 to 7 using crystalline form of sample", "format": "physicochemical"}, "[10]": {"assay": "Half life in Wistar rat at 0.3 to 1 mg/kg, iv administered as bolus dose by LC-MS/MS analysis", "format": "ADME, organism-based", "settings": "in vivo, dose 0.3-1 mg/kg"}, "[11]": {"assay": "Oral bioavailability in Wistar rat at 1 to 3 mg/kg administered via gavage using EtOH/PEG400/H2O 10/40/50 formulation by LC-MS/MS analysis", "format": "ADME, organism-based", "settings": "in vivo, dose 1-3 mg/kg"}, "[12]": {"assay": "Clearance in Wistar rat at 0.3 to 1 mg/kg, iv administered as bolus dose or 15 mins infusion by LC-MS/MS analysis", "format": "ADME, organism-based", "settings": "Wistar, in vivo, dose 0.3-1 mg/kg"}, "Cytochrome P450 3A4": {"target": "Cytochrome P450 3A4 (Homo sapiens, UniProt P08684)", "sequence (P08684 whole entry)": "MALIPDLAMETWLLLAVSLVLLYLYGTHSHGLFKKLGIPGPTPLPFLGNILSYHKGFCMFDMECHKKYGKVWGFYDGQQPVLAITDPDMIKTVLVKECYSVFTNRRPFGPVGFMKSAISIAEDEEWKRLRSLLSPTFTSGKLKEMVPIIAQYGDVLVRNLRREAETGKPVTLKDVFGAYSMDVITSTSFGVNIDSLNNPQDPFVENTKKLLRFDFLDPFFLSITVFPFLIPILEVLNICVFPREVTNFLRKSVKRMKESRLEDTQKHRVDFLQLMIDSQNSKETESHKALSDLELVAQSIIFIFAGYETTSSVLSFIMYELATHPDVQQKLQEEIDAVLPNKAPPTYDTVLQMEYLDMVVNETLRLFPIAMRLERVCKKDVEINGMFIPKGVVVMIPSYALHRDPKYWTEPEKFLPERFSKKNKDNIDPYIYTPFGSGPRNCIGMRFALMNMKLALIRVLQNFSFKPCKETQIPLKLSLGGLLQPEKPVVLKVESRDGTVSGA", "assay": "Inhibition of CYP3A4 in human liver microsomes using midazolam as substrate incubated for 10 mins in presence of NADPH generating system by LC-MS/MS analysis"}, "[13]": {"assay": "Protein binding in pooled human plasma assessed as unbound fraction incubated for 6 hrs by LC-MS/MS analysis based equilibrium dialysis method", "format": "ADME, cell-free"}, "[14]": {"assay": "Apparent permeability in human Caco-2 cells measured after 2 hrs by HPLC analysis", "format": "ADME, cell-based"}, "Homo sapiens [15]": {"organism": "Homo sapiens", "assay": "Selectivity ratio of IC50 for displacement of [3H]PGD2 from full-length recombinant human IP receptor expressed in HEK293 cell membranes to IC50 for displacement of [3H]PGF2alpha from full-length recombinant human FP receptor expressed in HEK293 cell membranes"}, "Homo sapiens [16]": {"organism": "Homo sapiens", "assay": "Selectivity ratio of IC50 for displacement of [3H]PGD2 from full-length recombinant human DP1 receptor expressed in Chem-1 cell membranes to IC50 for displacement of [3H]PGF2alpha from full-length recombinant human FP receptor expressed in HEK293 cell membranes"}, "Homo sapiens [17]": {"organism": "Homo sapiens", "assay": "Selectivity ratio of IC50 for displacement of [3H]prostaglandin E2 from full-length recombinant human EP3 receptor expressed in HEK293 cell membranes to IC50 for displacement of [3H]PGF2alpha from full-length recombinant human FP receptor expressed in HEK293 cell membranes"}, "Homo sapiens [18]": {"organism": "Homo sapiens", "assay": "Selectivity ratio of IC50 for displacement of [3H]prostaglandin E2 from full-length recombinant human EP2 receptor expressed in HEK293 cell membranes to IC50 for displacement of [3H]PGF2alpha from full-length recombinant human FP receptor expressed in HEK293 cell membranes"}, "Homo sapiens [19]": {"organism": "Homo sapiens", "assay": "Selectivity ratio of IC50 for displacement of [3H]prostaglandin E2 from full-length recombinant human EP1 receptor expressed in HEK293 cell membranes to IC50 for displacement of [3H]PGF2alpha from full-length recombinant human FP receptor expressed in HEK293 cell membranes"}, "[20]": {"assay": "Relative oral bioavailability in Wistar rat at 1 to 3 mg/kg administered via gavage using crystalline form of sample in sodium salt formulation by LC-MS/MS analysis", "format": "ADME, organism-based", "settings": "in vivo, dose 1-3 mg/kg"}}, "data": [{"smiles": "Cc1c(N2CCCC2)nc2ccc(Br)cc2c1C(=O)NC[C@H](CCC(=O)O)c1ccccc1Cl.Cl", "values": [{"measurement": "solubility", "setting": "[1]", "result": 2300, "unit": "µg/mL"}]}, {"smiles": "Cc1c(-c2ccccc2)nc2ccc(Br)cc2c1C(=O)Nc1ccc(C(=O)O)cc1F.NC(CO)(CO)CO", "values": [{"measurement": "bioavailability", "setting": "[2]", "result": 37, "unit": "%"}]}, {"smiles": "Cc1c(-c2ccccc2)nc2ccc(Br)cc2c1C(=O)NCCc1cccnc1", "values": [{"measurement": "Fh at 1 µM", "setting": "[3]", "result": 4, "unit": "%"}, {"measurement": "logD", "setting": "[4]", "result": 2.6}, {"measurement": "Ratio IC50", "setting": "Homo sapiens [5]", "result": "> 7.7"}, {"measurement": "IC50", "setting": "[6]", "result": 3.4, "unit": "µM"}]}, {"smiles": "Cc1c(-c2ccccc2)nc2ccc(Br)cc2c1C(=O)Nc1ccc(-c2nnn[nH]2)cc1F", "values": [{"measurement": "clearance", "setting": "[7]", "result": 50, "unit": "mL/min/kg"}, {"measurement": "efflux ratio at 2 h", "setting": "[8]", "result": 10}, {"measurement": "Ratio IC50", "setting": "Homo sapiens [5]", "result": 50}, {"measurement": "IC50", "setting": "[6]", "result": 0.0052, "unit": "µM"}]}, {"smiles": "Cc1c(-c2ccccc2)nc2ccc(Br)cc2c1C(=O)Nc1ccc(C(=O)O)cc1F", "values": [{"measurement": "solubility", "setting": "[9]", "result": 1, "unit": "µg/mL"}, {"measurement": "half-life", "setting": "[10]", "result": 3.1, "unit": "h"}, {"measurement": "bioavailability", "setting": "[11]", "result": 100, "unit": "%"}, {"measurement": "clearance", "setting": "[12]", "result": 16.7, "unit": "mL/min/kg"}, {"measurement": "IC50", "setting": "Cytochrome P450 3A4", "result": "> 20", "unit": "µM"}, {"measurement": "fraction unbound at 6 h", "setting": "[13]", "result": 0.016}, {"measurement": "logD", "setting": "[4]", "result": 1.9}, {"measurement": "IC50", "setting": "[6]", "result": 0.027, "unit": "µM"}]}, {"smiles": "Cc1c(C(=O)Nc2ccc(C(=O)O)cc2F)c2cc(Br)ccc2c(=O)n1-c1ccccc1", "values": [{"measurement": "efflux ratio at 2 h", "setting": "[8]", "result": 7.4}, {"measurement": "Papp at 2 h", "setting": "[14]", "result": 3.9, "unit": "×10⁻⁶ cm/s"}, {"measurement": "clearance", "setting": "[12]", "result": 100, "unit": "mL/min/kg"}, {"measurement": "IC50", "setting": "Cytochrome P450 3A4", "result": "> 20", "unit": "µM"}, {"measurement": "logD", "setting": "[4]", "result": 1.6}, {"measurement": "Ratio IC50", "setting": "Homo sapiens [15]", "result": "> 1600"}, {"measurement": "Ratio IC50", "setting": "Homo sapiens [16]", "result": "> 1600"}, {"measurement": "Ratio IC50", "setting": "Homo sapiens [5]", "result": 170}, {"measurement": "Ratio IC50", "setting": "Homo sapiens [17]", "result": "> 1600"}, {"measurement": "Ratio IC50", "setting": "Homo sapiens [18]", "result": "> 1600"}, {"measurement": "Ratio IC50", "setting": "Homo sapiens [19]", "result": "> 1600"}, {"measurement": "IC50", "setting": "[6]", "result": 0.04, "unit": "µM"}]}, {"smiles": "Cc1c(-c2ccccc2)nc2ccc(Br)cc2c1C(=O)Nc1ccc(C(=O)[O-])cc1F.[Na+]", "values": [{"measurement": "bioavailability", "setting": "[20]", "result": 29, "unit": "%"}]}, {"smiles": "Cc1c(-c2ccccc2)nc2ccc(Br)cc2c1C(=O)NC12CCC(C(=O)O)(CC1)CC2.NC(CO)(CO)CO", "values": [{"measurement": "bioavailability", "setting": "[2]", "result": 79, "unit": "%"}]}, {"smiles": "Cc1c(-c2ccccc2)nc2ccc(Br)cc2c1C(=O)NC12CCC(C(=O)[O-])(CC1)CC2.[Na+]", "values": [{"measurement": "bioavailability", "setting": "[20]", "result": 80, "unit": "%"}]}]}
